According to patent US20260297081A1, “COMPOUNDS AND METHODS OF TREATING CANCERS” (Cullgen Inc., priority 2023, published 2026):

System: Calu-1 cells
Experiment: Anti-proliferation (viability) of NSCLC Calu-1 cells, 3 days (Table 7, FIG. 2B)
Format: cell-based
Settings: Homo sapiens, 72 h; Calu-1 cells, 3 days, 10-point serial dilution; read-out: GI IC50 in Calu-1
Procedure: To evaluate anti-proliferation activities of heterobifunctional compounds, NSCLC Calu-1 or ER+ breast cancer T47D cells were treated with selected heterobifunctional compounds following a 10-point serial dilution for 3 or 6 days, respectively.
To verify that heterobifunctional compound-mediated degradation is dependent on the binding to CDK4-cyclin D complex, a negative control compound, CPD-143, which is derived from active heterobifunctional compound CPD-10 was designed. CPD-143 bears the same DDB1 ligand and linker as CPD-10 but with a modified warhead to impair the binding of the control compound to CDK4.

Structure (SMILES) | IC50 [nM]
[2H]C([2H])([2H])Nc1ccc(C(=O)Nc2ccc(N(C)C)nn2)c(N[C@H]2CC[C@H](C(=O)N3CCN(Cc4ccc(Nc5ncc6c(C)c(C(C)=O)c(=O)n(C7CCCC7)c6n5)nc4)CC3)CC2)n1 [CPD-495, 2-((4-(4-((6-((6-acetyl-8-cyclopentyl-5-methyl-7-oxo-7,8-dihydropyrido[2,3-d]pyrimidin-2-yl)amino)pyridin-3-yl)methyl)piperazine-1-carbonyl)cyclohexyl)amino)-N-(6-(dimethylamino)pyridazin-3-yl)-6-((methyl-d3)amino)nicotinamide] | ≥ 50
CC(=O)c1c(C)c2cnc(Nc3ccc(CN4CC5(C4)CN(C(=O)CN4CC6(CC(Nc7nc(NC(C)C)ccc7C(=O)Nc7ccc(N(C)C)nn7)C6)C4)C5)cn3)nc2n(C2CCCC2)c1=O [CPD-497, 2-((2-(2-(6-((6-((6-acetyl-8-cyclopentyl-5-methyl-7-oxo-7,8-dihydropyrido[2,3-d]pyrimidin-2-yl)amino)pyridin-3-yl)methyl)-2,6-diazaspiro[3.3]heptan-2-yl)-2-oxoethyl)-2-azaspiro[3.3]heptan-6-yl)amino)-N-(6-(dimethylamino)pyridazin-3-yl)-6-(isopropylamino) nicotinamide] | ≥ 50
CC(=O)c1c(C)c2cnc(Nc3ccc(CN4CC5(C4)CN(C(=O)CN4CCC(Nc6nc(NC(C)C)ccc6C(=O)Nc6ccc(N(C)C)nn6)CC4)C5)cn3)nc2n(C2CCCC2)c1=O [CPD-498, 2-((1-(2-(6-((6-((6-acetyl-8-cyclopentyl-5-methyl-7-oxo-7,8-dihydropyrido[2,3-d]pyrimidin-2-yl)amino)pyridin-3-yl)methyl)-2,6-diazaspiro[3.3]heptan-2-yl)-2-oxoethyl)piperidin-4-yl)amino)-N-(6-(dimethylamino)pyridazin-3-yl)-6-(isopropylamino)nicotinamide] | ≥ 50
CC(=O)c1c(C)c2cnc(Nc3ccc(CN4CC5(CN(CC(=O)N6CCC(Nc7nc(NC(C)C)ccc7C(=O)Nc7ccc(N(C)C)nn7)CC6)C5)C4)cn3)nc2n(C2CCCC2)c1=O [CPD-509, 2-((1-(2-(6-((6-((6-acetyl-8-cyclopentyl-5-methyl-7-oxo-7,8-dihydropyrido[2,3-d]pyrimidin-2-yl)amino)pyridin-3-yl)methyl)-2,6-diazaspiro[3.3]heptan-2-yl)acetyl)piperidin-4-yl)amino)-N-(6-(dimethylamino)pyridazin-3-yl)-6-(isopropylamino)nicotinamide] | ≥ 50
CC(=O)c1c(C)c2cnc(Nc3ccc(CN4CCN(C5CCN(C(=O)C6CC(Nc7nc(NC(C)C)ccc7C(=O)Nc7ccc(N(C)C)nn7)C6)C5)CC4)cn3)nc2n(C2CCCC2)c1=O (stereo not shown) [CPD-510, 2-((3-(3-(4-((6-((6-acetyl-8-cyclopentyl-5-methyl-7-oxo-7,8-dihydropyrido[2,3-d]pyrimidin-2-yl)amino)pyridin-3-yl)methyl)piperazin-1-yl)pyrrolidine-1-carbonyl)cyclobutyl)amino)-N-(6-(dimethylamino)pyridazin-3-yl)-6-(isopropylamino)nicotinamide] | ≥ 50
CC(=O)c1c(C)c2cnc(Nc3ccc(CN4CCN(C5CCN(C(=O)C6CCC(Nc7nc(NC(C)C)ccc7C(=O)Nc7ccc(N(C)C)nn7)C6)C5)CC4)cn3)nc2n(C2CCCC2)c1=O (stereo not shown) [CPD-511, 2-((3-(3-(4-((6-((6-acetyl-8-cyclopentyl-5-methyl-7-oxo-7,8-dihydropyrido[2,3-d]pyrimidin-2-yl)amino)pyridin-3-yl)methyl)piperazin-1-yl)pyrrolidine-1-carbonyl)cyclopentyl)amino)-N-(6-(dimethylamino)pyridazin-3-yl)-6-(isopropylamino)nicotinamide] | ≥ 50
CNc1ccc(C(=O)Nc2ccc(N(C)C)nn2)c(NC2CN(CC(=O)N3CCN(Cc4ccc(Nc5ncc6c(C)c(C(C)=O)c(=O)n(C7CCCC7)c6n5)nc4)CC3)C2)n1 [CPD-513, 2-((1-(2-(4-((6-((6-acetyl-8-cyclopentyl-5-methyl-7-oxo-7,8-dihydropyrido[2,3-d]pyrimidin-2-yl)amino)pyridin-3-yl)methyl)piperazin-1-yl)-2-oxoethyl)azetidin-3-yl)amino)-N-(6-(dimethylamino)pyridazin-3-yl)-6-(methylamino)nicotinamide] | ≥ 50

The remaining lines, values ahead:

IC50 [nM] | Structure (SMILES)
≤ 10 | CC(=O)c1c(C)c2cnc(Nc3ccc(N4CCC5(CCN(CC(=O)NC67CC(Nc8nc(NC(C)C)ccc8C(=O)Nc8ccc(N(C)C)nn8)(C6)C7)C5)C4)cn3)nc2n(C2CCCC2)c1=O (stereo not shown) [CPD-496, 2-((3-(2-(7-(6-((6-acetyl-8-cyclopentyl-5-methyl-7-oxo-7,8-dihydropyrido[2,3-d]pyrimidin-2-yl)amino)pyridin-3-yl)-2,7-diazaspiro[4.4]nonan-2-yl)acetamido)bicyclo[1.1.1]pentan-1-yl)amino)-N-(6-(dimethylamino)pyridazin-3-yl)-6-(isopropylamino)nicotinamide]
≤ 10 | COc1ccc(NC(=O)c2ccc(NC(C)C)nc2N[C@H]2CC[C@H](C(=O)N3CCC(N4CCN(c5ccc(Nc6ncc7c(C)c(C(C)=O)c(=O)n(C8CCCC8)c7n6)nc5)CC4)C3)CC2)nn1 (stereo partly drawn) [CPD-500, 2-((trans-4-(3-(4-(6-((6-acetyl-8-cyclopentyl-5-methyl-7-oxo-7,8-dihydropyrido[2,3-d]pyrimidin-2-yl)amino)pyridin-3-yl)piperazin-1-yl)pyrrolidine-1-carbonyl)cyclohexyl)amino)-6-(isopropylamino)-N-(6-methoxypyridazin-3-yl)nicotinamide]
10 to 50 | CC(=O)c1c(C)c2cnc(Nc3ccc(CN4CCN(CC(=O)NC56CC(Nc7nc(NC(C)C)ccc7C(=O)Nc7ccc(N(C)C)nn7)(C5)C6)CC4)cn3)nc2n(C2CCCC2)c1=O [CPD-502, 2-((3-(2-(4-((6-((6-acetyl-8-cyclopentyl-5-methyl-7-oxo-7,8-dihydropyrido[2,3-d]pyrimidin-2-yl)amino)pyridin-3-yl)methyl)piperazin-1-yl)acetamido)bicyclo[1.1.1]pentan-1-yl)amino)-N-(6-(dimethylamino)pyridazin-3-yl)-6-(isopropylamino)nicotinamide]
≥ 50 | [2H]C([2H])([2H])Nc1ccc(C(=O)Nc2ccc(N(C)C)nn2)c(NC2CC3(C2)CN(CC(=O)N2CCC4(CCN(Cc5ccc(Nc6ncc7c(C)c(C(C)=O)c(=O)n(C8CCCC8)c7n6)nc5)C4)C2)C3)n1 (stereo not shown) [CPD-507, 2-((2-(2-(7-((6-((6-acetyl-8-cyclopentyl-5-methyl-7-oxo-7,8-dihydropyrido[2,3-d]pyrimidin-2-yl)amino)pyridin-3-yl)methyl)-2,7-diazaspiro[4.4]nonan-2-yl)-2-oxoethyl)-2-azaspiro[3.3]heptan-6-yl)amino)-N-(6-(dimethylamino)pyridazin-3-yl)-6-((methyl-d3)amino)nicotinamide]
≥ 50 | CC(=O)c1c(C)c2cnc(Nc3ccc(CN4CC5(CN(CC(=O)N6CC7(CC(Nc8nc(NC(C)C)ccc8C(=O)Nc8ccc(N(C)C)nn8)C7)C6)C5)C4)cn3)nc2n(C2CCCC2)c1=O [CPD-508, 2-((2-(2-(6-((6-((6-acetyl-8-cyclopentyl-5-methyl-7-oxo-7,8-dihydropyrido[2,3-d]pyrimidin-2-yl)amino)pyridin-3-yl)methyl)-2,6-diazaspiro[3.3]heptan-2-yl)acetyl)-2-azaspiro[3.3]heptan-6-yl)amino)-N-(6-(dimethylamino)pyridazin-3-yl)-6-(isopropylamino)nicotinamide]
10 to 50 | CC(=O)c1c(C)c2cnc(Nc3ccc(CN4CCN(C5CCN(C(=O)[C@H]6CC[C@H](Nc7nc(NC(C)C)ccc7C(=O)Nc7ccc(N(C)C)nn7)CC6)C5)CC4)cn3)nc2n(C2CCCC2)c1=O (stereo partly shown) [CPD-512, 2-((4-(3-(4-((6-((6-acetyl-8-cyclopentyl-5-methyl-7-oxo-7,8-dihydropyrido[2,3-d]pyrimidin-2-yl)amino)pyridin-3-yl)methyl)piperazin-1-yl)pyrrolidine-1-carbonyl)cyclohexyl)amino)-N-(6-(dimethylamino)pyridazin-3-yl)-6-(isopropylamino)nicotinamide]
≥ 50 | CC(=O)c1c(C)c2cnc(Nc3ccc(N4CCN(CC(=O)NC5CC6(C5)CC(Nc5nc(NC(C)C)ccc5C(=O)Nc5cc(C)n(C(F)(F)F)n5)C6)CC4)cn3)nc2n(C2CCCC2)c1=O (stereo not shown) [CPD-514, 2-((6-(2-(4-(6-((6-acetyl-8-cyclopentyl-5-methyl-7-oxo-7,8-dihydropyrido[2,3-d]pyrimidin-2-yl)amino)pyridin-3-yl)piperazin-1-yl)acetamido)spiro[3.3]heptan-2-yl)amino)-6-(isopropylamino)-N-(5-methyl-1-(trifluoromethyl)-1H-pyrazol-3-yl)nicotinamide]
10 to 50 | CC(=O)c1c(C)c2cnc(Nc3ccc(N4CCN(C5CCN(C(=O)C6(C)CCC(Nc7nc(NC(C)C)ccc7C(=O)Nc7ccc(N(C)C)nn7)CC6)C5)CC4)cn3)nc2n(C2CCCC2)c1=O (stereo not shown) [CPD-516, 2-((4-(3-(4-(6-((6-acetyl-8-cyclopentyl-5-methyl-7-oxo-7,8-dihydropyrido[2,3-d]pyrimidin-2-yl)amino)pyridin-3-yl)piperazin-1-yl)pyrrolidine-1-carbonyl)-4-methylcyclohexyl)amino)-N-(6-(dimethylamino)pyridazin-3-yl)-6-(isopropylamino)nicotinamide]
≥ 50 | CC(=O)c1c(C)c2cnc(Nc3ccc(N4CCC(N(C)C(=O)CN5CC(Nc6nc(NC(C)C)ccc6C(=O)Nc6ccc(N(C)C)nn6)C5)CC4)cn3)nc2n(C2CCCC2)c1=O [CPD-517, 2-((1-(2-((1-(6-((6-acetyl-8-cyclopentyl-5-methyl-7-oxo-7,8-dihydropyrido[2,3-d]pyrimidin-2-yl)amino)pyridin-3-yl)piperidin-4-yl)(methyl)amino)-2-oxoethyl)azetidin-3-yl)amino)-N-(6-(dimethylamino)pyridazin-3-yl)-6-(isopropylamino)nicotinamide]
